{"source": "patent US12544395B2", "about": "“Combination compositions comprising a beta-lactamase inhibitor and uses thereof” (priority 2018, dated 2026)", "key": {"[1]": {"test_system": "K. pneumoniae ESBL 7 #2", "test": "Broth microdilution MIC (strain enzymes: SHV-12, CTX-M15, TEM-1)", "assay_type": "cell-based", "details": "Klebsiella pneumoniae; alone; read-out: MIC of ceftibuten (CTB)"}, "[2]": {"test_system": "K. pneumoniae KP 4", "test": "Broth microdilution MIC (strain enzymes: SHV-2a, SHV-5, TEM-1)", "assay_type": "cell-based", "details": "Klebsiella pneumoniae, KP4; alone; read-out: MIC of ceftibuten (CTB)"}, "[3]": {"test_system": "K. pneumoniae ESBL 10", "test": "Broth microdilution MIC (strain enzymes: SHV-12, TEM-1)", "assay_type": "cell-based", "details": "Klebsiella pneumoniae, ESBL10; alone; read-out: MIC of ceftibuten (CTB)"}, "[4]": {"test_system": "K. pneumoniae 329633", "test": "Broth microdilution MIC (strain enzymes: SHV-5, TEM-1)", "assay_type": "cell-based", "details": "Klebsiella pneumoniae, 329633; alone; read-out: MIC of ceftibuten (CTB)"}, "[5]": {"test_system": "K. pneumoniae ESBL 8 #2", "test": "Broth microdilution MIC (strain enzymes: SHV-12, TEM-1)", "assay_type": "cell-based", "details": "Klebsiella pneumoniae; alone; read-out: MIC of ceftibuten (CTB)"}, "[6]": {"test_system": "K. pneumoniae ESBL 7 #1", "test": "Broth microdilution MIC (strain enzymes: SHV-12, TEM-1)", "assay_type": "cell-based", "details": "Klebsiella pneumoniae; alone; read-out: MIC of ceftibuten (CTB)"}, "[7]": {"test_system": "E. coli 3327", "test": "Broth microdilution MIC (strain enzymes: TEM-1, SHV-12)", "assay_type": "cell-based", "details": "Escherichia coli, 3327; alone; read-out: MIC of ceftibuten (CTB)"}, "[8]": {"test_system": "E. coli ESBL 5", "test": "Broth microdilution MIC (strain enzymes: CTX-M15, TEM-1)", "assay_type": "cell-based", "details": "Escherichia coli, ESBL5; alone; read-out: MIC of ceftibuten (CTB)"}, "[9]": {"test_system": "E. coli 2806", "test": "Broth microdilution MIC (strain enzymes: SHV-12, TEM-1)", "assay_type": "cell-based", "details": "Escherichia coli, 2806; alone; read-out: MIC of ceftibuten (CTB)"}, "[10]": {"test_system": "K. oxytoca 176877", "test": "Broth microdilution MIC (strain enzymes: SHV-105)", "assay_type": "cell-based", "details": "Klebsiella oxytoca, 176877; alone; read-out: MIC of ceftibuten (CTB)"}, "[11]": {"test_system": "K. pneumoniae 304487", "test": "Broth microdilution MIC (strain enzymes: SHV-12,TEM-1)", "assay_type": "cell-based", "details": "Klebsiella pneumoniae, 304487; alone; read-out: MIC of ceftibuten (CTB)"}, "[12]": {"test_system": "three strains of E. coli expressing TEM-1+CTX-M-15, CTX-M-15, and KPC-2+SHV-12", "test": "MIC against the UTI test strains", "assay_type": "cell-based", "details": "Escherichia coli; alone; read-out: Ceftibuten MICs"}, "[13]": {"test_system": "E. coli expressing TEM-1+CTX-M-15, CTX-M-15, and KPC-2+SHV-12", "test": "Murine ascending UTI model, three strains", "assay_type": "in vivo, mice", "details": "mouse, in vivo"}, "[14]": {"test_system": "E. coli 25922", "test": "Broth microdilution MIC (strain enzymes: None detected)", "assay_type": "cell-based", "details": "Escherichia coli, 25922; alone; read-out: MIC of ceftibuten (CTB)"}, "[15]": {"test_system": "E. coli 1924", "test": "Broth microdilution MIC (strain enzymes: TEM-12)", "assay_type": "cell-based", "details": "Escherichia coli, 1924; alone; read-out: MIC of ceftibuten (CTB)"}, "[16]": {"test_system": "E. coli SI-M004", "test": "Broth microdilution MIC (strain enzymes: SHV-2, GES-12)", "assay_type": "cell-based", "details": "Escherichia coli, SIM004; alone; read-out: MIC of ceftibuten (CTB)"}, "[17]": {"test_system": "K. pneumoniae 319478", "test": "Broth microdilution MIC (strain enzymes: SHV-12, CTX-M3 and TEM-1)", "assay_type": "cell-based", "details": "Klebsiella pneumoniae, 319478; alone; read-out: MIC of ceftibuten (CTB)"}, "[18]": {"test_system": "K. oxytoca 496 #2", "test": "Broth microdilution MIC (strain enzymes: SHV-105, TEM-1)", "assay_type": "cell-based", "details": "Klebsiella oxytoca; alone; read-out: MIC of ceftibuten (CTB)"}, "[19]": {"test_system": "E. coli ESBL 2", "test": "Broth microdilution MIC (strain enzymes: TEM-1)", "assay_type": "cell-based", "details": "Escherichia coli, ESBL2; alone; read-out: MIC of ceftibuten (CTB)"}, "[20]": {"test_system": "panel of ESBL-producing Enterobacteriaceae (40 strains)", "test": "Broth microdilution MIC50/MIC90 summary over the panel", "assay_type": "cell-based"}}, "data": [{"compound": "Nc1nc(/C(=C/CC(=O)O)C(=O)N[C@@H]2C(=O)N3C(C(=O)O)=CCS[C@H]23)cs1", "note": "[Ceftibuten, ceftibuten, reference compound]", "values": [{"measurement": "MIC", "setting": "[1]", "result": "> 32", "unit": "µg/mL"}, {"measurement": "MIC", "setting": "[2]", "result": 32, "unit": "µg/mL"}, {"measurement": "MIC", "setting": "[3]", "result": 16, "unit": "µg/mL"}, {"measurement": "MIC", "setting": "[4]", "result": 16, "unit": "µg/mL"}, {"measurement": "MIC", "setting": "[5]", "result": 16, "unit": "µg/mL"}, {"measurement": "MIC", "setting": "[6]", "result": 32, "unit": "µg/mL"}, {"measurement": "MIC", "setting": "[7]", "result": 8, "unit": "µg/mL"}, {"measurement": "MIC", "setting": "[8]", "result": "> 32", "unit": "µg/mL"}, {"measurement": "MIC", "setting": "[9]", "result": 2, "unit": "µg/mL"}, {"measurement": "MIC", "setting": "[10]", "result": 4, "unit": "µg/mL"}, {"measurement": "MIC", "setting": "[11]", "result": 8, "unit": "µg/mL"}, {"measurement": "MIC", "setting": "[12]", "result": "8 to 64", "unit": "µg/mL"}, {"measurement": "CFU reductions in the kidneys", "setting": "[13]", "result": "minimal CFU reductions"}, {"measurement": "MIC", "setting": "[14]", "result": 0.25, "unit": "µg/mL"}, {"measurement": "MIC", "setting": "[15]", "result": 0.5, "unit": "µg/mL"}, {"measurement": "MIC", "setting": "[16]", "result": 32, "unit": "µg/mL"}, {"measurement": "MIC", "setting": "[17]", "result": "> 32", "unit": "µg/mL"}, {"measurement": "MIC", "setting": "[18]", "result": 8, "unit": "µg/mL"}, {"measurement": "MIC", "setting": "[19]", "result": 8, "unit": "µg/mL"}, {"measurement": "MIC50", "setting": "[20]; read-out: Ceftibuten MIC50", "result": 8, "unit": "µg/mL"}, {"measurement": "MIC90", "setting": "[20]; read-out: Ceftibuten MIC90", "result": "> 32", "unit": "µg/mL"}]}]}
